Results: ChEMBL document CHEMBL4428125, “8-Substituted 1,3-dimethyltetrahydropyrazino[2,1-f]purinediones: Water-soluble adenosine receptor antagonists and monoamine oxidase B inhibitors” (Bioorg Med Chem, 2016)
≈ marks a conversion by molar mass, not a printed value.

What was measured:
[1] = Thermodynamic solubility of the compound at pH 4; format: physicochemical; settings: buffer, read-out: Therm_solubility
[2] = target: Adenosine receptor A2a (Rattus norvegicus, UniProt P30543); test: Displacement of [3H]MSX from A2A receptor in rat brain striatum membranes measured after 30 mins by liquid scintillation counting method; format: cell membranes
Sequence of Adenosine receptor A2a (P30543 whole entry): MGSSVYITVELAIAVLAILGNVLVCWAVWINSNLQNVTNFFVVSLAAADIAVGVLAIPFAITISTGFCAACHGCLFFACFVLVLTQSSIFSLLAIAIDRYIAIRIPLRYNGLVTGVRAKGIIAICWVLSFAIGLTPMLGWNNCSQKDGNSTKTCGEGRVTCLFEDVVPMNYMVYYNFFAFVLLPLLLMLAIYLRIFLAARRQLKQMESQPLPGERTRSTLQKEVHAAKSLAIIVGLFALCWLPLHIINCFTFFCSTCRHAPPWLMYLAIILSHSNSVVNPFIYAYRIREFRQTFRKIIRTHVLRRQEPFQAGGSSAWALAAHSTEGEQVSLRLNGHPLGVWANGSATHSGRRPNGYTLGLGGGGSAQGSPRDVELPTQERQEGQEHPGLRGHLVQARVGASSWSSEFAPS

[3] = target: Adenosine receptor A2a (Rattus norvegicus) (UniProt P30543); test: Displacement of [3H]MSX from A2A receptor in rat brain striatum membranes at 1 uM measured after 30 mins by liquid scintillation counting method relative to control; format: cell membranes
Sequence of Adenosine receptor A2a (Rattus norvegicus) (P30543 whole entry): as above

[4] = target: T1, Adenosine receptor A1 (Rattus norvegicus, UniProt P25099); test: Displacement of [3H]CCPA from A1 receptor in rat brain cortex membranes by liquid scintillation counting method; format: cell membranes
T1 sequence (P25099 whole entry): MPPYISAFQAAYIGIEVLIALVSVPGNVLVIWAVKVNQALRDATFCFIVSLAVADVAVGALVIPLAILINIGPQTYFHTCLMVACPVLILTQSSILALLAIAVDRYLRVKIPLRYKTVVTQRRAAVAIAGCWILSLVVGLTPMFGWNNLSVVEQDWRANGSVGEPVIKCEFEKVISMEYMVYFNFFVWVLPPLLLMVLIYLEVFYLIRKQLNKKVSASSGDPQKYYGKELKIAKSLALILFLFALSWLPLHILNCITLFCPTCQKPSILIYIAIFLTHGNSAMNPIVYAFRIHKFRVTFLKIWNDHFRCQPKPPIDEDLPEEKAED

[5] = target: T2, Adenosine receptor A2b (Homo sapiens, UniProt P29275); test: Displacement of [3H]PSB-603 from human A2B receptor expressed in CHO cell membrane; format: cell membranes
T2 sequence (P29275 whole entry): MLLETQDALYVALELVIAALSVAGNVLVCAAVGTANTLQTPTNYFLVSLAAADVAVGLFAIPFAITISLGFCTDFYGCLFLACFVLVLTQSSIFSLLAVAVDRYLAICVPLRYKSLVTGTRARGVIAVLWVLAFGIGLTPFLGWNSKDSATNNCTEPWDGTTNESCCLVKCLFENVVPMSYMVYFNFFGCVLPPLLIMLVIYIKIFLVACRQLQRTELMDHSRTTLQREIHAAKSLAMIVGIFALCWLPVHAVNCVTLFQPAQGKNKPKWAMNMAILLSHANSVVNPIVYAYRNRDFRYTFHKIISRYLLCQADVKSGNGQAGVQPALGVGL

[6] = Thermodynamic solubility of the compound at pH 7.4; format: physicochemical; settings: buffer, read-out: Therm_solubility
[7] = target: T3, Adenosine receptor A3 (Homo sapiens) (UniProt P0DMS8); test: Displacement of [3H]PSB-11 from human A3 receptor expressed in CHO cell membrane at 10 uM by liquid scintillation counting method relative to control relative to control; format: cell membranes
T3 sequence (whole entry): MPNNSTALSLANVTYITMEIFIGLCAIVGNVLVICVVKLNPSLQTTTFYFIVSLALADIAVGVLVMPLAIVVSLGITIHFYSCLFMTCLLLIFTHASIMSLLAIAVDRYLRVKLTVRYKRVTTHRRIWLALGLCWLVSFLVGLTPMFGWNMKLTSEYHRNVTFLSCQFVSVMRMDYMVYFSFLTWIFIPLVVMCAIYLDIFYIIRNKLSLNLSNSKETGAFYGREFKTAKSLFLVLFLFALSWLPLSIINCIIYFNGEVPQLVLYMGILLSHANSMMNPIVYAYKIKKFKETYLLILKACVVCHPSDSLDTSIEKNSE

[8] = target: T4, Adenosine receptor A1 (Rattus norvegicus) (UniProt P25099); test: Displacement of [3H]CCPA from A1 receptor in rat brain cortex membranes at 1.5 uM by liquid scintillation counting method; format: cell membranes
T4 sequence (whole entry): T1 sequence (P25099 whole entry)

[9] = target: T5, Adenosine receptor A3 (Homo sapiens, UniProt P0DMS8); test: Displacement of [3H]PSB-11 from human A3 receptor expressed in CHO cell membrane by liquid scintillation counting method relative to control; format: cell membranes
T5 sequence (P0DMS8 whole entry): T3 sequence (whole entry)

[10] = target: T6, Amine oxidase [flavin-containing] B (Homo sapiens, UniProt P27338); test: Inhibition of recombinant human MAO-B expressed in baculovirus infected BTI insect cells preincubated for 30 mins followed by addition of p-tyramine as substrate measured over 45 mins by Amplex Red MAO assay
T6 sequence (P27338 whole entry): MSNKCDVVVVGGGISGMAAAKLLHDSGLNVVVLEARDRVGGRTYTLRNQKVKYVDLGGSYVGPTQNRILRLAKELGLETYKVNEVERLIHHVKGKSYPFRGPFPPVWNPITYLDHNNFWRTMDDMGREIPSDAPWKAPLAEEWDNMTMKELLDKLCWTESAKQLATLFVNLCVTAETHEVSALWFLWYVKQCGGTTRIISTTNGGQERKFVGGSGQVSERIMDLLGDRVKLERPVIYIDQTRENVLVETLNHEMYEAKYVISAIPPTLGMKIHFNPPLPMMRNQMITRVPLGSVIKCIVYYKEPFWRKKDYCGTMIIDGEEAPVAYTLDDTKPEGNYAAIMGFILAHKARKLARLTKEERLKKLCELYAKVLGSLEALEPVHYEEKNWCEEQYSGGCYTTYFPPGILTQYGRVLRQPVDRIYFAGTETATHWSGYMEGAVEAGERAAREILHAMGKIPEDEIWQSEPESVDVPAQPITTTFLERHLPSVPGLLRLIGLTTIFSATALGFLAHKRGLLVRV

[11] = Thermodynamic solubility of the compound at pH 1; format: physicochemical; settings: buffer, read-out: Therm_solubility
[12] = target: T7, Adenosine receptor A2b (Homo sapiens) (UniProt P29275); test: Displacement of [3H]PSB-603 from human A2B receptor expressed in CHO cell membrane at 1 uM relative to control; format: cell membranes
T7 sequence (whole entry): T2 sequence (P29275 whole entry)

[13] = target: T6, Amine oxidase [flavin-containing] B; test: Inhibition of recombinant human MAO-B expressed in baculovirus infected BTI insect cells at 10 uM preincubated for 30 mins followed by addition of p-tyramine as substrate measured over 45 mins by Amplex Red MAO assay relative to control; settings: 0.75 h
[14] = target: T8, Amine oxidase [flavin-containing] A (Homo sapiens, UniProt P21397); test: Inhibition of recombinant human MAO-A expressed in baculovirus infected BTI insect cells preincubated for 30 mins followed by addition of p-tyramine as substrate measured over 45 mins by Amplex Red MAO assay
T8 sequence (P21397 whole entry): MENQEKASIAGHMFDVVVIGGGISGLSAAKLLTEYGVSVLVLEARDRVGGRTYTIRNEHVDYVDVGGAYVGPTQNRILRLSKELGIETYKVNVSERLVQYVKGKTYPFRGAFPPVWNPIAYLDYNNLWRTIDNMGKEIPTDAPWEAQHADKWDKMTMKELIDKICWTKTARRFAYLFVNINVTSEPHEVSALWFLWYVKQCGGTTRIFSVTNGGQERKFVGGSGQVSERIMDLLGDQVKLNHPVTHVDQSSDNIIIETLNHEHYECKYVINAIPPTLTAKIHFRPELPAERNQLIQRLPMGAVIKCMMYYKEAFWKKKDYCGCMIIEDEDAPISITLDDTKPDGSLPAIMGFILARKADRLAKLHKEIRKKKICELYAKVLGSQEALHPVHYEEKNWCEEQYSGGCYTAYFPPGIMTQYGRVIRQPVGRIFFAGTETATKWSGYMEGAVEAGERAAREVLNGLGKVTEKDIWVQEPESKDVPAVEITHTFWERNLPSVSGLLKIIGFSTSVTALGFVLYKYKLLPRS

[15] = target: T8, Amine oxidase [flavin-containing] A; test: Inhibition of recombinant human MAO-A expressed in baculovirus infected BTI insect cells at 10 uM preincubated for 30 mins followed by addition of p-tyramine as substrate measured over 45 mins by Amplex Red MAO assay relative to control; settings: 0.75 h

Row | solubility thermodynamic [1] [µg/mL] | Ki [2] [nM] | Activity [3] [%] | Ki [4] [nM] | Ki [5] [nM] | solubility thermodynamic [6] [µg/mL] | Activity [7] [%] | Activity [8] [%] | Ki [9] [nM] | IC50 [10] [nM] | solubility thermodynamic [11] [µg/mL] | Activity [12] [%] | inhibition at 10 µM [13] [%] | IC50 [14] [nM] | inhibition at 10 µM [15] [%] | Structure (SMILES)
1 | < 0.5 | > 1000 | 27 | > 1500 | > 1000 | < 0.5 | 35 | 10 | > 10000 | 970 | > 1500 | 24 |  |  |  | Cn1c(=O)c2c(nc3n2CCN(CCc2ccccc2Br)C3)n(C)c1=O
2 | < 0.5 | > 1000 | 23 | > 1500 | > 1000 | < 0.5 | 41 | 5 | > 10000 | > 10000 | > 1500 | 12 | 24 |  |  | Cn1c(=O)c2c(nc3n2CCN(CCOc2ccccc2F)C3)n(C)c1=O
3 |  | 6040 |  | > 1500 | > 1000 | 1 (≈ 2.81 µM) | 35 | 11 | > 10000 | > 10000 |  | 8 | 15 |  |  | Cn1c(=O)c2c(nc3n2CCN(CCc2ccc(O)cc2)C3)n(C)c1=O
4 |  | > 1000 | 14 | > 1500 | > 1000 | 700 (≈ 2040 µM) | 5 | 15 | > 10000 | > 10000 |  | 8 | -17 |  |  | Cc1cc(CN2CCn3c(nc4c3c(=O)n(C)c(=O)n4C)C2)n(C)n1
5 |  | > 1000 | 11 | > 1500 | > 1000 |  | 8 | 11 | > 10000 | > 10000 |  | 9 | 7 | > 10000 | 2 | COc1cccc2c1CC[C@H](N1CCn3c(nc4c3c(=O)n(C)c(=O)n4C)C1)C2
6 |  | > 1000 | 19 | > 1500 | > 1000 | 1 (≈ 2.04 µM) | 40 | 25 | > 10000 | 10000 |  | 30 | 67 |  |  | Cc1sc(-c2ccc(C(F)(F)F)cc2)nc1CN1CCn2c(nc3c2c(=O)n(C)c(=O)n3C)C1
7 |  | > 1000 | 30 | > 1500 | > 1000 |  | 43 | 5 | > 10000 | > 10000 |  | 8 | 1 |  |  | COc1cccc(CCN2CCn3c(nc4c3c(=O)n(C)c(=O)n4C)C2)c1OC
8 |  | > 1000 | 15 | > 1500 | > 1000 |  | 39 | 9 | > 10000 | > 10000 |  | 7 | 4 |  |  | COc1ccccc1CCN1CCn2c(nc3c2c(=O)n(C)c(=O)n3C)C1
9 |  | > 1000 | 31 | > 1500 | > 1000 |  | 35 | 29 | > 10000 | > 10000 |  | 15 | 31 |  |  | Cn1c(=O)c2c(nc3n2CCN(CC#Cc2ccc(Cl)c(Cl)c2)C3)n(C)c1=O
10 |  | 4960 |  | > 1500 | > 1000 | 1 (≈ 2.67 µM) | 37 | 22 | > 10000 | > 10000 |  | 4 | 36 |  |  | Cn1c(=O)c2c(nc3n2CCN(CCc2ccc(Cl)cc2)C3)n(C)c1=O
11 | 70 (≈ 197 µM) | 7110 |  | > 1500 | > 1000 | 90 (≈ 253 µM) | 11 | 7 | > 10000 | > 10000 | 1100 (≈ 3100 µM) | 20 | 3 |  |  | Cn1c(=O)c2c(nc3n2CCN(CC(O)c2ccccc2)C3)n(C)c1=O (stereo not drawn)
12 |  | > 1000 | 16 | > 1500 | > 1000 |  | 43 | -2 | > 10000 | > 10000 |  | 6 | 13 |  |  | COc1ccc(CCN2CCn3c(nc4c3c(=O)n(C)c(=O)n4C)C2)cc1OC
13 |  | > 1000 | 42 | > 1500 | > 1000 |  | 20 | 17 | > 10000 | > 10000 |  | 7 | 5 | > 10000 | 19 | Cn1c(=O)c2c(nc3n2CCN(CC#Cc2cccc(Cl)c2)C3)n(C)c1=O
14 |  | > 1000 | 32 | > 1500 | > 1000 |  | 9 | 17 | > 10000 | > 10000 |  | 7 | 13 |  |  | COc1cccc(C#CCN2CCn3c(nc4c3c(=O)n(C)c(=O)n4C)C2)c1
15 |  | > 1000 | 31 | > 1500 | > 1000 |  | 23 | 17 | > 10000 | > 10000 |  | 5 | 10 |  |  | COc1cccc(CCN2CCn3c(nc4c3c(=O)n(C)c(=O)n4C)C2)c1
